What was measured:
DIPGX37 [1] = H3.3 K27M diffuse intrinsic pontine glioma line; test: EC50 (inflection of fitted growth-inhibition curve) (log10 M)
Procedure, shortened: (§1)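 Patient-derived pHGG/DIPG cell lines and astrocyte controls were grown on 1% Geltrex-coated 384-well plates and exposed by pin tool to a 10-point threefold dilution series (mean top concentration 35 μM), in triplicate. Exposure was 7 days (iAstro 3 days) at 37 °C, 5% CO2. CellTiter-Glo luminescence was log2-transformed, normalised per plate to % activity between negative (solvent) and positive control wells, and pooled. EC50 and maximal response (yFin) come from the lowest-AICc three- or four-parameter log-logistic fit.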

HGGX39 [2] = paediatric high-grade glioma line; test: as above
Procedure, shortened: as §1

HGGX6 [3] = H3.3 G34R paediatric high-grade glioma line; test: as above
Procedure, shortened: as §1

DIPGX37 [4] = test: maximal growth inhibition (yFin) relative to DMSO / staurosporine; higher = more efficacious
Procedure, shortened: as §1

HGGX39 [5] = test: as above
Procedure, shortened: as §1

HGGX6 [6] = test: as above
Procedure, shortened: as §1

DIPGX29 [7] = H3.3 K27M diffuse intrinsic pontine glioma line; test: area under dose-response curve of % growth inhibition (log2 RLU vs DMSO / staurosporine), 1e-11 to 1e-4 M (% x log10 M); higher = more growth inhibition
Procedure, shortened: (§2)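 On 1% Geltrex-coated 384-well plates, patient-derived pHGG/DIPG cell lines and astrocytes were treated in triplicate across 10 threefold dilutions (mean top concentration 35 μM) for 7 days, with iAstro treated for 3 days, at 37 °C, 5% CO2. Log2-transformed CellTiter-Glo luminescence was normalised per plate to % activity between solvent and positive controls. Area under the curve was obtained by the trapezoid rule from a log-logistic fit, or from a smoothing spline when that fit failed.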

DIPGX37 [8] = test: as above
Procedure, shortened: as §2

HGGX39 [9] = test: as above
Procedure, shortened: as §2

HGGX6 [10] = test: as above
Procedure, shortened: as §2

DIPGX29 [11] = test: EC50 (inflection of fitted growth-inhibition curve) (log10 M)
Procedure, shortened: as §1

DIPGX29 [12] = test: maximal growth inhibition (yFin) relative to DMSO / staurosporine; higher = more efficacious
Procedure, shortened: as §1

Structure (SMILES)	EC50 (log10 M) (DIPGX37 [1])	EC50 (log10 M) (HGGX39 [2])	EC50 (log10 M) (HGGX6 [3])	maximal growth inhibition (DIPGX37 [4]) [%]	maximal growth inhibition (HGGX39 [5]) [%]	maximal growth inhibition (HGGX6 [6]) [%]	area under dose-response curve (DIPGX29 [7])	area under dose-response curve (DIPGX37 [8])	area under dose-response curve (HGGX39 [9])	area under dose-response curve (HGGX6 [10])	EC50 (log10 M) (DIPGX29 [11])	maximal growth inhibition (DIPGX29 [12]) [%]
O=C(NCC1(c2nc(-c3ccccc3)cs2)CCOCC1)c1cccc(-c2noc(C(F)(F)F)n2)c1 [TMP269]	-4.89	-4.9	-4.93	44.2	25.1	21	28	53.7	22.7	27.4	–	–
CCc1c2c(nc3ccc(O)cc13)-c1cc3c(c(=O)n1C2)COC(=O)[C@]3(O)CC [SN-38]	-6.02	-6.74	-6.77	49	46.5	23.2	68.7	125	167	65.4	–	–
CCCCOc1cc(C(=O)OCCN(CC)CC)ccc1N [OXYBUPROCAINE]	–	-4.97	-5.11	–	67.2	26.6	11.5	16.5	65.7	29.7	–	–
C[C@H]1[C@H](OC(=O)CCC(=O)O)O[C@@H]2O[C@@]3(C)CC[C@H]4[C@H](C)CC[C@@H]1[C@@]24OO3 [ARTESUNATE]	–	-4.94	-5.03	–	32.5	22.2	8.84	9.88	29	23.5	–	–
CCC(C)(C)C(=O)O[C@H]1C[C@@H](C)C=C2C=C[C@H](C)[C@H](CC[C@@H]3C[C@@H](O)CC(=O)O3)[C@H]21 [SIMVASTATIN]	–	-4.94	-5.07	–	53.9	22.6	29.8	39.1	63.6	24.4	–	–
Cc1ccc(C(=O)Nc2ccc(Oc3cc4cnn(C)c4cc3-c3cn[nH]c3)c(F)c2)c(=O)n1-c1ccc(F)cc1	–	-5.27	-5.1	–	20.9	25.3	22.4	16.1	28.1	41.1	–	–
CCNc1nc(Nc2cc(F)c(C(=O)N3CCOCC3)cc2OC)ncc1C(F)(F)F [GNE-7915]	–	-4.79	–	–	38.7	–	23.5	15.9	29.7	21.1	-4.82	28.7
Cc1cc(=O)n(C)c2cc(N3C(=O)CC[C@H](NS(=O)(=O)CC(C)C)[C@H]3c3ccc(Cl)cc3)ccc12 [LP-99]	–	–	-4.95	–	–	22.4	12.9	10.2	11.5	21.2	–	–
CC[C@H](C)C(=O)O[C@H]1CCC=C2C=C[C@H](C)[C@H](CC[C@@H]3C[C@@H](O)CC(=O)O3)[C@H]21 [MEVASTATIN]	-5.53	-4.97	–	20.8	57.7	–	32.6	41.4	56.7	23.3	–	–

From the supplement of paper PMC8253809
